Our source for the DC50 and Dmax values is patent US12180193B2, “Accelerating fibrosarcoma protein degrading compounds and associated methods of use” (Arvinas Operations, Inc., priority 2020, dated 2024).

As a reminder, the DC50 is the concentration giving 50% degradation. As usually defined, the Dmax is the largest share of the target that was removed. A lower Dmax goes with shallow degradation.

For one test, the target named is T1, BRAF V600E (Homo sapiens, UniProt P15056, V600E).
T1 construct: expressed in transfected cells
T1 sequence (P15056 whole entry V600E): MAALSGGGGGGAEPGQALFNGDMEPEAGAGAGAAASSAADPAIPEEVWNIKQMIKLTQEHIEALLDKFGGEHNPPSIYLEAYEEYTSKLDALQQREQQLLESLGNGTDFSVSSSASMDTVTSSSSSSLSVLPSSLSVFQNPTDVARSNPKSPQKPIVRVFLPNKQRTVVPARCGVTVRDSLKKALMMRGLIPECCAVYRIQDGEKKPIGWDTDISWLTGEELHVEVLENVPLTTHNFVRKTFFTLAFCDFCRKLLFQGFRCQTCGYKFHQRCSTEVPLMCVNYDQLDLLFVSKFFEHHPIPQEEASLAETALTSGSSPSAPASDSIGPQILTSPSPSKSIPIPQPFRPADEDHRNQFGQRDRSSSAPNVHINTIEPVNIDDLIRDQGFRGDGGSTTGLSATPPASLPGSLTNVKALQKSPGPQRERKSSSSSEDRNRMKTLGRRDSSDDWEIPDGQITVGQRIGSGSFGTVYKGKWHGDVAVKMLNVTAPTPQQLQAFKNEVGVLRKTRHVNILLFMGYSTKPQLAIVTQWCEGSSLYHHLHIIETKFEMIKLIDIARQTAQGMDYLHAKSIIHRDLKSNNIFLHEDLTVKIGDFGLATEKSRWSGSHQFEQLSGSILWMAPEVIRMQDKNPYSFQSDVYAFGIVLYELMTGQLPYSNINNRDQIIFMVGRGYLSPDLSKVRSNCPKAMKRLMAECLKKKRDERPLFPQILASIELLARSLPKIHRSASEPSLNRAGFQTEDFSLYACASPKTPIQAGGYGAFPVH
Put plainly: Cellular assay of target protein degradation, T-Rex 293 cells stably transfected with HA-BRAF_V600E (HA immunofluorescence, high content imaging). The format is cell-based. In short, it runs like this: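 Read-out is anti-HA immunofluorescence quantified by high-content imaging, giving half-maximal degradation concentration (DC50) and maximum degradation (Dmax, percent of control). Cells expressed the construct under 1 ng/mL doxycycline and received compound (1 μM to 0.1 nM final, 0.1% DMSO) for 24 h at 37 °C.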

The next test addresses T2, BRAF G466V (Homo sapiens, UniProt P15056, G466V).
T2 construct: expressed in transfected cells
Put plainly: Cellular assay of target protein degradation, T-Rex 293 cells stably transfected with HA-BRAF G466V (HA immunofluorescence, high content imaging). It is filed as cell-based. Summed up: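 First, stably transfected T-Rex 293 cells were plated with 0.75 ng/mL doxycycline and grown for 24 hours. Next, compound (final 30 nM to 3 pM, 0.1% DMSO) was added for another 24 hours at 37° C. Finally, cells were fixed, stained for HA and imaged.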

The mark [1] stands for this setting: half maximal degradation, T-Rex 293 HA-BRAF V600E; read-out: BRaf V600E DC50.
Setting [2] is: maximum degradation observed, T-Rex 293 HA-BRAF V600E.
The mark [3] stands for this setting: half maximal degradation, T-Rex 293 HA-BRAF G466V; read-out: BRaf G466V DC50.
[4] abbreviates: maximum degradation observed, T-Rex 293 HA-BRAF G466V.

Read-outs that look alike come from different tables or passages of the source.

T2 sequence (P15056 whole entry G466V): as the sequence (P15056 whole entry V600E) above, with G466V, E600V counted along it

On to `O=C1CCC(N2Cc3cc(C4CCN(CC5CCN(c6ccc(-c7cnc8[nH]cc(C(=O)c9c(F)ccc(NS(=O)(=O)N%10CCCC%10)c9F)c8c7)cc6)CC5)CC4)ccc3C2=O)C(=O)N1` (stereo not drawn) [Compound 177, N-[3-(5-{4-[4-({4-[2-(2,6-dioxopiperidin-3-yl)-1-oxo-2,3-dihydro-1H-isoindol-5-yl]piperidin-1-yl}methyl)piperidin-1-yl]phenyl}-1H-pyrrolo[2,3-b]pyridine-3-carbonyl)-2,4-difluorophenyl]pyrrolidine-1-sulfonamide], for which the DC50 at BRAF V600E (setting [1]) was under 5 nM; at BRAF G466V (setting [3]), under 1 nM. The Dmax on BRAF V600E (setting [2]) is 35 to 70%; at BRAF G466V (setting [4]), over 70%.

Consider `O=C1CCC(c2ccc(C3CCN(CCC4CCN(c5ccc(-c6cnc7[nH]cc(C(=O)c8c(F)ccc(NS(=O)(=O)N9CC[C@@H](F)C9)c8F)c7c6)cc5)CC4)CC3)cc2F)C(=O)N1` (stereo partly drawn) [Compound 178, (3R)-N-[3-(5-{4-[4-(2-{4-[4-(2,6-dioxopiperidin-3-yl)-3-fluorophenyl]piperidin-1-yl}ethyl)piperidin-1-yl]phenyl}-1H-pyrrolo[2,3-b]pyridine-3-carbonyl)-2,4-difluorophenyl]-3-fluoropyrrolidine-1-sulfonamide], for which the DC50 at BRAF V600E (setting [1]) was in the range of 5 to 50 nM; at BRAF G466V (setting [3]) it was 1 to 10 nM. Besides, the values for the Dmax on BRAF V600E (setting [2]) and at BRAF G466V (setting [4]) were under 35% and over 70%, respectively.

For the molecule `O=C1CCC(N2Cc3cc(C4CCN(C[C@@H]5[C@H]6CN(c7ccc(-c8cnc9[nH]cc(C(=O)c%10c(F)ccc(NS(=O)(=O)N%11CC[C@@H](F)C%11)c%10F)c9c8)cc7)C[C@@H]56)CC4)ccc3C2=O)C(=O)N1` (stereo partly drawn) [Compound 179, (3R)-N-[3-(5-{4-[(1R,5S,6S)-6-({4-[2-(2,6-dioxopiperidin-3-yl)-1-oxo-2,3-dihydro-1H-isoindol-5-yl]piperidin-1-yl}methyl)-3-azabicyclo[3.1.0]hexan-3-yl]phenyl}-1H-pyrrolo[2,3-b]pyridine-3-carbonyl)-2,4-difluorophenyl]-3-fluoropyrrolidine-1-sulfonamide], the half-maximal degradation concentration (DC50) is 5 to 50 nM at BRAF V600E (setting [1]) and 1 to 10 nM at BRAF G466V (setting [3]). The Dmax at BRAF V600E (setting [2]) was 35 to 70%; at BRAF G466V (setting [4]) it was over 70%.

With `O=C1CCC(N2Cc3cc(C4CCN(C[C@@H]5C[C@H]6CC[C@@H](C5)N6c5ccc(-c6cnc7[nH]cc(C(=O)c8c(F)ccc(NS(=O)(=O)N9CC[C@@H](F)C9)c8F)c7c6)cc5)CC4)ccc3C2=O)C(=O)N1` (stereo partly drawn) [Compound 180, (3R)-N-[3-(5-{4-[(1R,3S,5S)-3-({4-[2-(2,6-dioxopiperidin-3-yl)-1-oxo-2,3-dihydro-1H-isoindol-5-yl]piperidin-1-yl}methyl)-8-azabicyclo[3.2.1]octan-8-yl]phenyl}-1H-pyrrolo[2,3-b]pyridine-3-carbonyl)-2,4-difluorophenyl]-3-fluoropyrrolidine-1-sulfonamide], the 50% degradation concentration (DC50) at BRAF V600E (setting [1]) is 5 to 50 nM; at BRAF G466V (setting [3]) it was 1 to 10 nM. The greatest degradation seen (Dmax) was 35 to 70% on BRAF V600E (setting [2]) and over 70% at BRAF G466V (setting [4]).

Take `O=C1CCC(N2Cc3cc(N4CCC(CC5CCN(c6ccc(-c7cnc8[nH]cc(C(=O)c9c(F)ccc(NS(=O)(=O)N%10CC[C@@H](F)C%10)c9F)c8c7)cc6)CC5)CC4)ccc3C2=O)C(=O)N1` (stereo partly drawn) [Compound 181, (3R)-N-[3-(5-{4-[4-({1-[2-(2,6-dioxopiperidin-3-yl)-1-oxo-2,3-dihydro-1H-isoindol-5-yl]piperidin-4-yl}methyl)piperidin-1-yl]phenyl}-1H-pyrrolo[2,3-b]pyridine-3-carbonyl)-2,4-difluorophenyl]-3-fluoropyrrolidine-1-sulfonamide]: the Dmax is under 35% at BRAF V600E (setting [2]) and 35 to 70% at BRAF G466V (setting [4]). Further, the DC50 at BRAF V600E (read-out: BRaf V600E DC50; half maximal degradation, T-Rex 293 HA-BRAF V600E) was in the range of 50 to 500 nM; at BRAF G466V (read-out: BRaf G466V DC50; half maximal degradation, T-Rex 293 HA-BRAF G466V), 10 to 30 nM.

For the molecule `CN(CCN1CCN(c2ccc3c(c2)CN(C2CCC(=O)NC2=O)C3=O)CC1)[C@H]1C[C@@H](Oc2ccc(-c3cnc4[nH]cc(C(=O)c5c(F)ccc(NS(=O)(=O)N6CC[C@@H](F)C6)c5F)c4c3)cc2)C1` (stereo partly drawn) [Compound 182, (3R)-N-[2,4-difluoro-3-(5-{4-[(1s,3s)-3-[(2-{4-[2-(2,6-dioxopiperidin-3-yl)-1-oxo-2,3-dihydro-1H-isoindol-5-yl]piperazin-1-yl}ethyl)(methyl)amino]cyclobutoxy)phe-nyl}-1H-pyrrolo[2,3-b]pyridine-3-carbonyl)phenyl]-3-fluoropyrrolidine-1-sulfonamide], the DC50 is 50 to 500 nM at BRAF V600E (setting [1]) and 1 to 10 nM at BRAF G466V (setting [3]). Moreover, the Dmax on BRAF V600E (setting [2]) was 35 to 70%; at BRAF G466V (setting [4]) it was over 70%.

In the case of `CC1(N2Cc3cc(C4CCN(CC5CCN(c6ccc(-c7cnc8[nH]cc(C(=O)c9c(F)ccc(NS(=O)(=O)N%10CC[C@@H](F)C%10)c9F)c8c7)cc6)CC5)CC4)ccc3C2=O)CCC(=O)NC1=O` (stereo partly drawn) [Compound 183, (3R)-N-[2,4-difluoro-3-(5-{4-[4-({4-[2-(3-methyl-2,6-dioxopiperidin-3-yl)-1-oxo-2,3-dihydro-1H-isoindol-5-yl]piperidin-1-yl}methyl)piperidin-1-yl]phenyl}-1H-pyrrolo[2,3-b]pyridine-3-carbonyl)phenyl]-3-fluoropyrrolidine-1-sulfonamide], the DC50 at BRAF V600E (setting [1]) was 50 to 500 nM; at BRAF G466V (setting [3]), over 30 nM. Moreover, the maximal degradation (Dmax) at BRAF V600E (setting [2]) is under 35%.

As to `COc1cc(C2CCN(CC3CCN(c4ccc(-c5cnc6[nH]cc(C(=O)c7c(F)ccc(NS(=O)(=O)N8CC[C@@H](F)C8)c7F)c6c5)cc4)CC3)CC2)ccc1C(=O)NC1CCC(=O)NC1=O` (stereo partly drawn) [Compound 184, 4-(1-{[1-(4-{3-[2,6-difluoro-3-({[(3R)-3-fluoropyrrolidin-1-yl]sulfonyl}amino)benzoyl]-1H-pyrrolo[2,3-b]pyridin-5-yl}phenyl)piperidin-4-yl]methyl}piperidin-4-yl)-N-(2,6-dioxopiperidin-3-yl)-2-methoxybenzamide], the DC50 at BRAF V600E (setting [1]) lay within 5 to 50 nM; at BRAF G466V (setting [3]), 1 to 10 nM. The results for the Dmax at BRAF V600E (setting [2]) and on BRAF G466V (setting [4]) were under 35% and 35 to 70%, respectively.

In the case of `O=C1CCC(N2Cc3ccc(C4CCN(CC5CCN(c6ccc(-c7cnc8[nH]cc(C(=O)c9c(F)ccc(NS(=O)(=O)N%10CC[C@@H](F)C%10)c9F)c8c7)cc6)CC5)CC4)cc3C2=O)C(=O)N1` (stereo partly drawn) [Compound 185, (3R)-N-[3-(5-{4-[4-({4-[2-(2,6-dioxopiperidin-3-yl)-3-oxo-2,3-dihydro-1H-isoindol-5-yl]piperidin-1-yl}methyl)piperidin-1-yl]phenyl}-1H-pyrrolo[2,3-b]pyridine-3-carbonyl)-2,4-difluorophenyl]-3-fluoropyrrolidine-1-sulfonamide], the DC50 was 5 to 50 nM at BRAF V600E (setting [1]) and 1 to 10 nM at BRAF G466V (setting [3]). Moreover, the figures for the Dmax at BRAF V600E (setting [2]) and on BRAF G466V (setting [4]) were under 35% and over 70%, respectively.

`COc1cc([C@H](O)CCN2CCN(c3ccc(-c4cnc5[nH]cc(C(=O)c6c(F)ccc(NS(=O)(=O)N7CC[C@@H](F)C7)c6F)c5c4)cc3)CC2)cc2c1C(=O)N([C@H]1CCC(=O)NC1=O)C2` [Compound 186, (3R)-N-{3-[5-(4-{4-[(3R)-3-{2-[(3S)-2,6-dioxopiperidin-3-yl]-7-methoxy-1-oxo-2,3-dihydro-1H-isoindol-5-yl}-3-hydroxypropyl]piperazin-1-yl}phenyl)-1H-pyrrolo[2,3-b]pyridine-3-carbonyl]-2,4-difluorophenyl}-3-fluoropyrrolidine-1-sulfonamide]: the DC50 fell in the range of 50 to 500 nM at BRAF V600E (setting [1]) and 1 to 10 nM at BRAF G466V (setting [3]). Further, the Dmax at BRAF V600E (setting [2]) is 35 to 70%; at BRAF G466V (setting [4]), over 70%.
